Reference: PubChem BioAssay (NCI)
Several values for one entry are separate records, joined by “and”; a condition that tells them apart may be missing. Identical values can stand only once.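 How tested: cells in 96-well plates exposed to compound for 48 hours at five concentrations. GI50: concentration for 50% inhibition of growth. TGI marks complete inhibition of growth.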

tested on: MDA-MB-468 breast; assay: NCI anticancer screen, dose series, 48 h

Compared with `CCCCCCCC(=O)SCC/C=C/[C@@H]1CC(=O)NCc2cccc(n2)C2=N[C@@](C)(CS2)C(=O)N[C@@H](C(C)C)C(=O)O1`, `CC/C=C\C[C@H](O)C/C=C1/C(=O)C=C[C@@H]1C/C=C\CCCC(=O)OCCS(=O)(=O)c1ccccc1` is 21-fold higher in GI50: 107 nM for the first, 2280 nM for the second.

Going from `O=c1[nH]ccc2nc(N3CCC(O)CC3)nc(Nc3ccc(N4CCOCC4)cc3)c12` to `OC1CCN(CCCOc2c3ccccc3nc3c2oc2ccccc23)CC1`, the GI50 falls from 43200 nM to 1760 nM (25-fold).

Going from `N#Cc1c(N)n(C2OC(CO)C(O)C2O)c2ncnc(N)c12` (stereo unspecified) to `Nc1c(C(=O)c2cccc(C(O)(CO)CO)c2)cnn1-c1ccc(F)cc1`, the GI50 rises from 17.3 nM to greater than 25000 nM.

First: CS(=O)(=O)c1nccc(-c2c(-c3cccc(OCc4ccccc4)c3)nc3sccn23)n1
Second: COc1ccccc1CN=C1NC(=O)/C(=C/c2ccc3ncccc3c2)S1
The GI50 of the first is 2.4-fold lower: 1410 nM for the first, 3350 nM for the second.

Going from `O=C1C2=C(C(=O)c3c(O)ccc(O)c31)N(c1cccnc1)Cc1ccccc1O2` to `CN(C)c1ccc(/C=N/NC(=O)CSc2nc3sc4c(c3c(=O)n2-c2ccccc2)CCCCC4)cc1`, the GI50 rises from 175 nM to 3850 nM (22-fold).

`COc1ccc2nc(-c3ccc(Cl)cc3)cc(-c3nnc(SCC(=O)Nc4ccc(/C(C)=N\O)cc4)o3)c2c1` and `COc1ccc2[nH]cc(/C=N/Nc3ccnc4cc(Cl)ccc34)c2c1` are within 1.5-fold of each other in GI50: 1380 nM for the first, 1130 nM for the second.

Compared with `COc1ccc(/C=C(/C(=O)N2CCN(c3ccc(C)cc3)CC2)c2cc(OC)c(OC)c(OC)c2)cc1N`, `COc1cc(/C=C/C(=O)c2ccc(F)cc2)ccc1OCCCCOc1cc2c(cc1OC)C(=O)N1CCCC1C=N2` (stereo unspecified) is 7.6-fold higher in GI50: 224 nM for the first, 1710 nM for the second.

First: O=C(/C=C/c1ccccc1)Nc1ncc(Cc2ccccc2)s1
Second: Oc1ccccc1/C=N/Nc1nc2ccccc2s1
The GI50 of the first is 6-fold lower: 416 nM for the first, 2510 nM for the second.

Going from `Cc1cc(NCCCNc2ccnc3cc(Cl)ccc23)nc(Nc2ccc(C(=O)N3CCCCC3)cc2)n1` to `Cc1ccc(C(=O)Nc2ccc(CN3CCN(C)CC3)c(C(F)(F)F)c2)cc1C#Cc1cnc(N)c2ccc(C#N)cc12`, the GI50 falls from 2330 nM to 156 nM (15-fold).

Compared with `COc1ccc(-c2c(-c3cc4c(c(OC)c3OC)OCO4)noc2N)cc1`, `COc1ccc2c(c1)O/C(=C\c1ccc([N+](=O)[O-])o1)C2=O` is 2.7-fold higher in GI50: 192 nM for the first, 519 nM for the second.

First: O=c1ncc(I)c[nH]1
Second: COc1ccc(Nc2[nH]n(C3=Nc4ccccc4Sc4ccccc43)c(=O)c2C#N)cc1
The GI50 of the first is higher: greater than 100000 nM for the first, 382 nM for the second.

Going from `COc1ccc(C(=O)OC2C(OC3C(O)COC(O[C@H]4C[C@H]5[C@@H]6CC=C7C[C@@H](O)CC[C@]7(C)[C@H]6CC[C@]5(C)[C@H]4[C@H](C)C(=O)CCC(C)C)C3OC(=O)C(C)C)OCC(O)C2O)cc1` (stereo partly specified) to `C=C(C)[C@@H]1CC[C@]2(C(=O)N3CCN(C)CC3)CC[C@]3(C)[C@H](CC[C@@H]4[C@@]5(C)C/C(=C/c6ccncc6)[C@H](O)C(C)(C)[C@@H]5CC[C@]43C)[C@@H]12`, the GI50 rises from 58.3 nM to 5450 nM (93-fold).

Compared with `COc1ccc(C2CC(c3ccc4ccccc4c3)=NN2/C=C2\SC(=S)N(NC(=O)Cc3ccccc3Nc3c(Cl)cccc3Cl)C2=O)cc1` (stereo unspecified), `COc1cc(-c2nn(-c3ccc(NC(=O)Nc4ccc(Cl)c(C(F)(F)F)c4)cc3)cc2-c2ccncc2)ccc1Cl` is 2.6-fold higher in GI50: 544 nM for the first, 1390 nM for the second.

First: Cc1c(C)n(CC(O)CNC2CCCCC2C)c2ccccc12 (stereo unspecified)
Second: OCCNC(=S)Nc1ccc(-c2nc(N3C[C@H]4CC[C@@H](C3)O4)c3cccn3n2)cc1
The GI50 of the first is 530-fold higher: 9210 nM for the first, 17.4 nM for the second.

Compared with `COc1ccc(NC(=O)COc2ccccc2)c(C(N)=O)c1`, `CCN(CC)c1ccc(CNc2cc(C)nc3ccc(OC)cc23)cc1` is 2.3-fold higher in GI50: 453 nM for the first, 1020 nM for the second.

First: Cc1ccccc1NC(=O)N/C(N)=N/c1nc(C)c(C)s1
Second: O=C(Nc1ccc(-n2ccc3c(NC(=O)c4ccccc4)ncnc32)cc1)Nc1ccc(Cl)c(C(F)(F)F)c1
The GI50 of the first is 6.4-fold lower: 224 nM for the first, 1440 nM for the second.

First: c1cc2c(cc1NC1=NCCO1)CCCC2
Second: C/C(=N\NC(=O)c1cccc(S(=O)(=O)N2CCN(C)CC2)c1)c1cc(Cl)ccc1O
The GI50 of the first is 15-fold higher: 6180 nM for the first, 402 nM for the second.

For `CC[C@]12C=CCN3CC[C@@]4(c5ccc(OC)cc5N(C)[C@H]4[C@@](O)(C(=O)OC)[C@@H]1OC(=O)CCCC[P+](c1ccccc1)(c1ccccc1)c1ccccc1)[C@@H]32`, the GI50 was 195 nM.

Compared with `CCCCCCCC(=O)SCC/C=C/[C@@H]1CC(=O)NCc2cccc(n2)C2=N[C@@](C)(CS2)C(=O)N[C@@H](C(C)C)C(=O)O1`, `CC/C=C\C[C@H](O)C/C=C1/C(=O)C=C[C@@H]1C/C=C\CCCC(=O)OCCS(=O)(=O)c1ccccc1` is lower in TGI: greater than 33300 nM for the first, 6830 nM for the second.

Compared with `O=c1[nH]ccc2nc(N3CCC(O)CC3)nc(Nc3ccc(N4CCOCC4)cc3)c12`, `OC1CCN(CCCOc2c3ccccc3nc3c2oc2ccccc23)CC1` is lower in TGI: greater than 100000 nM for the first, 4910 nM for the second.

Going from `N#Cc1c(N)n(C2OC(CO)C(O)C2O)c2ncnc(N)c12` (stereo unspecified) to `Nc1c(C(=O)c2cccc(C(O)(CO)CO)c2)cnn1-c1ccc(F)cc1`, the TGI rises from 34.9 nM to greater than 25000 nM.

First: CS(=O)(=O)c1nccc(-c2c(-c3cccc(OCc4ccccc4)c3)nc3sccn23)n1
Second: COc1ccccc1CN=C1NC(=O)/C(=C/c2ccc3ncccc3c2)S1
The TGI of the first is lower: 3000 nM for the first, greater than 25000 nM for the second.

Compared with `O=C1C2=C(C(=O)c3c(O)ccc(O)c31)N(c1cccnc1)Cc1ccccc1O2`, `CN(C)c1ccc(/C=N/NC(=O)CSc2nc3sc4c(c3c(=O)n2-c2ccccc2)CCCCC4)cc1` is higher in TGI: 458 nM for the first, greater than 100000 nM for the second.

`COc1ccc2nc(-c3ccc(Cl)cc3)cc(-c3nnc(SCC(=O)Nc4ccc(/C(C)=N\O)cc4)o3)c2c1` and `COc1ccc2[nH]cc(/C=N/Nc3ccnc4cc(Cl)ccc34)c2c1` are within 1.5-fold of each other in TGI: 3580 nM for the first, 2600 nM for the second.

Compared with `O=C(/C=C/c1ccccc1)Nc1ncc(Cc2ccccc2)s1`, `Oc1ccccc1/C=N/Nc1nc2ccccc2s1` is lower in TGI: greater than 100000 nM for the first, 60700 nM for the second.

Going from `Cc1cc(NCCCNc2ccnc3cc(Cl)ccc23)nc(Nc2ccc(C(=O)N3CCCCC3)cc2)n1` to `Cc1ccc(C(=O)Nc2ccc(CN3CCN(C)CC3)c(C(F)(F)F)c2)cc1C#Cc1cnc(N)c2ccc(C#N)cc12`, the TGI rises from 4690 nM to 9630 nM (2.1-fold).

Going from `COc1cc(/C=C/C(=O)c2ccc(F)cc2)ccc1OCCCCOc1cc2c(cc1OC)C(=O)N1CCCC1C=N2` (stereo unspecified) to `O=C(NCCN1CCOCC1)Nc1nc2ccc(Sc3nnc4ccc(-c5ccc(F)cc5)nn34)cc2s1`, the TGI rises from 3590 nM to greater than 29300 nM.

First: O=c1ncc(I)c[nH]1
Second: COc1ccc(Nc2[nH]n(C3=Nc4ccccc4Sc4ccccc43)c(=O)c2C#N)cc1
The TGI of the first is higher: greater than 100000 nM for the first, 2810 nM for the second.

First: COc1ccc(C(=O)OC2C(OC3C(O)COC(O[C@H]4C[C@H]5[C@@H]6CC=C7C[C@@H](O)CC[C@]7(C)[C@H]6CC[C@]5(C)[C@H]4[C@H](C)C(=O)CCC(C)C)C3OC(=O)C(C)C)OCC(O)C2O)cc1 (stereo partly specified)
Second: C=C(C)[C@@H]1CC[C@]2(C(=O)N3CCN(C)CC3)CC[C@]3(C)[C@H](CC[C@@H]4[C@@]5(C)C/C(=C/c6ccncc6)[C@H](O)C(C)(C)[C@@H]5CC[C@]43C)[C@@H]12
The TGI of the first is 7.4-fold lower: 3550 nM for the first, 26100 nM for the second.

Compared with `COc1ccc(C2CC(c3ccc4ccccc4c3)=NN2/C=C2\SC(=S)N(NC(=O)Cc3ccccc3Nc3c(Cl)cccc3Cl)C2=O)cc1` (stereo unspecified), `COc1cc(-c2nn(-c3ccc(NC(=O)Nc4ccc(Cl)c(C(F)(F)F)c4)cc3)cc2-c2ccncc2)ccc1Cl` is lower in TGI: greater than 34200 nM for the first, 3230 nM for the second.

Compared with `COc1ccc2c(c1)O/C(=C\c1ccc([N+](=O)[O-])o1)C2=O`, `COc1ccc(NC(=O)COc2ccccc2)c(C(N)=O)c1` is higher in TGI: 2260 nM for the first, greater than 62800 nM for the second.

Going from `Cc1c(C)n(CC(O)CNC2CCCCC2C)c2ccccc12` (stereo unspecified) to `OCCNC(=S)Nc1ccc(-c2nc(N3C[C@H]4CC[C@@H](C3)O4)c3cccn3n2)cc1`, the TGI falls from 23000 nM to 289 nM (80-fold).

Going from `Cc1ccccc1NC(=O)N/C(N)=N/c1nc(C)c(C)s1` to `O=C(Nc1ccc(-n2ccc3c(NC(=O)c4ccccc4)ncnc32)cc1)Nc1ccc(Cl)c(C(F)(F)F)c1`, the TGI rises from 788 nM to 3320 nM (4.2-fold).

Compared with `c1cc2c(cc1NC1=NCCO1)CCCC2`, `CCN(CC)c1ccc(CNc2cc(C)nc3ccc(OC)cc23)cc1` is 9.4-fold lower in TGI: 24800 nM for the first, 2630 nM for the second.

Compared with `CC[C@]12C=CCN3CC[C@@]4(c5ccc(OC)cc5N(C)[C@H]4[C@@](O)(C(=O)OC)[C@@H]1OC(=O)CCCC[P+](c1ccccc1)(c1ccccc1)c1ccccc1)[C@@H]32`, `C/C(=N\NC(=O)c1cccc(S(=O)(=O)N2CCN(C)CC2)c1)c1cc(Cl)ccc1O` is 6.7-fold higher in TGI: 575 nM for the first, 3870 nM for the second.

With `CC(C)C[C@H](NC(=O)[C@H](Cc1ccccc1)NC(=O)c1cnccn1)B(O)O` the GI50 was < 10 nM and 1.9 nM.

In the case of `CC(C)C[C@H](NC(=O)[C@H](Cc1ccccc1)NC(=O)c1cnccn1)B(O)O`, the TGI is reported as < 10 nM and 5.2 nM.
